# Laboratory results taken from US11679107B2 (Eisai R&D Management Co., Ltd., priority 2018, dated 2023).
# Where two headings read alike, the source gives them in different places.
# Legend:
# [1] = system: Ad2 variant pre-mRNAs spliced in HeLa S3 nuclear extracts; test: In vitro splicing assay (IVS), RT-qPCR of spliced product; format: biochemical; details: for IC50: geometric mean; for Ratio Ad2.1/2.2: ratio of IVS IC50 Ad2.1 to Ad2.2
# Summary of the method: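 Ad2 variant pre-mRNA (2 ng) with FTZΔi control RNA in HeLa S3 nuclear extract (8 μg) was pre-incubated with compound or DMSO for 15 min at 30 °C. Splicing ran 90 min at 30 °C after adding 0.5 mM ATP, creatine phosphate and MgCl2. Spliced product was quantified by TaqMan RT-qPCR, normalized to DMSO, and curve-fitted.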
# SF3b complexes = molecular target: T1, SF3b complexes (Homo sapiens, UniProt O75533+Q7RTV0); test: Scintillation proximity assay (SPA) with [3H]-labelled pladienolide probe; format: binding; details: SF3B1 (WT); geometric mean; read-out: SPA-ATS GMean IC50 (nM) SF3B1 (WT)
# T1 construct: endogenous in cells; host or cells: Nuclear extracts; A HeLa S3 extract preparation is described for the in vitro splicing assay
# Summary of the method: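 SF3b complexes captured from nuclear extracts on anti-SF3B1 antibody SPA beads; test compounds pre-incubated 30 min before 2.5 nM [3H]-pladienolide probe added, then 30 min incubation. Bound probe read by scintillation; values from non-linear regression of concentration–response curves.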
# [2] = system: NCI-H1568 cells (high MCL1); test: Cell proliferation and viability, CellTiter-Glo, 72 hours; format: cell-based; details: for GI50: geometric mean
# Summary of the method: (§1)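 Cells grown in RPMI-1640 with 10% FBS (Panc line with added insulin and FBS to 15%) were exposed to an 11-point half-log dilution series, typically 10 μM-100 pM, at 0.1% final DMSO. After incubation at 37° C, 5% CO2, ATP content was measured by luminescence and normalized to a time-zero plate and DMSO wells.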
# [3] = system: Panc 05.04 cells (SF3b K700E mutant); test: as above; format: cell-based; details: for GI50: geometric mean
# Summary of the method: as §1
# [4] = Ad2.1 pre-mRNA substrate, read-out: qPCR-IVS-ATS GMean IC50 (nM) Ad2.1
# [5] = Ad2.2 pre-mRNA substrate, read-out: qPCR-IVS-ATS GMean IC50 (nM) Ad2.2
# [6] = NCI-H1568, read-out: CTGlo-ATS GMean GI50 (nM) 72 h NCIH1568.1, NCIH1568.1 cells, 72 h
# [7] = NCIH1568.1 cells, 72 h, −100% cidal, 0% static, 100% maximal growth
# [8] = PANC0504.1 cells, 72 h, −100% cidal, 0% static, 100% maximal growth
# [9] = Panc 05.04, read-out: CTGlo-ATS GMean GI50 (nM) 72 h PANC0504.1, PANC0504.1 cells, 72 h
# [10] = 72 h, NCIH1568.1, -100% = cidal, 0% = static, 100% = uninhibited growth
# [11] = NCI-H1568, read-out: CTGlo-ATS GMean GI50 (nM) 72 h NCIH1568.1, 72 h, NCIH1568.1
# [12] = 72 h, PANC0504.1, -100% = cidal, 0% = static, 100% = uninhibited growth
# [13] = Panc 05.04, read-out: CTGlo-ATS GMean GI50 (nM) 72 h PANC0504.1, 72 h, PANC0504.1
SMILES,"IC50 [1, 4]","IC50 [1, 5]",IC50 (SF3b complexes),"GI50 [2, 6]","CTGlo-ATS Mean MinResponse % 72 h NCIH1568.1 [2, 7]","CTGlo-ATS Mean MinResponse % 72 h PANC0504.1 [3, 8]","GI50 [3, 9]","GI50 ([2]; NCI-H1568, 72 h, read-out: CTGlo-ATS GMean GI50 (nM) 72 h NCIH1568.1, NCIH1568.1 cells, 72 h)","GI50 ([3]; Panc 05.04, 72 h, read-out: CTGlo-ATS GMean GI50 (nM) 72 h PANC0504.1, PANC0504.1 cells, 72 h)",Ratio Ad2.1/2.2 [1],"CTGlo-ATS Mean MinResponse % 72 h NCIH1568.1 [2, 10]","GI50 [2, 11]","CTGlo-ATS Mean MinResponse % 72 h PANC0504.1 [3, 12]","GI50 [3, 13]"
C/C(=C\c1cc(F)c2nn(C3CCOCC3)nc2c1)[C@H]1OC(=O)C[C@H](O)CC[C@H](C)[C@@H](OC(=O)N2CCN(C)CC2)/C=C/[C@@H]1C [Compound 141],> 25000 nM,61.3 nM,13 nM,48.8 nM,−63.745%,−94.865%,72.4 nM,–,–,–,–,–,–,–
C/C(=C\c1cc(F)cc(N2CCN(C(=O)C3CCOCC3)CC2)c1)[C@H]1OC(=O)C[C@H](O)CC[C@H](C)[C@@H](OC(=O)N2CCN(C)CC2)/C=C/[C@@H]1C [Compound 118],22 nM,19.9 nM,3.76 nM,–,−82.113%,−79.169%,–,3 nM,4.55 nM,–,–,–,–,–
C/C(=C\c1cc(F)cc(N2CCN(C(=O)C3CC3)CC2)c1)[C@H]1OC(=O)C[C@H](O)CC[C@H](C)[C@@H](OC(=O)N2CCN(C)CC2)/C=C/[C@@H]1C [Compound 109],26.5 nM,14 nM,2.85 nM,2 nM,−84.780%,−84.673%,3.55 nM,–,–,–,–,–,–,–
C/C(=C\c1cc(F)cc(N(C)C2CCS(=O)(=O)CC2)c1)[C@H]1OC(=O)C[C@H](O)CC[C@H](C)[C@@H](OC(=O)N2CCN(C)CC2)/C=C/[C@@H]1C [Compound 172],22.6 nM,15.4 nM,5.58 nM,8.72 nM,−74.177%,−88.455%,17.9 nM,–,–,–,–,–,–,–
C/C(=C\c1ccnc(N2CCOCC2)c1)[C@H]1OC(=O)C[C@H](O)CC[C@H](C)[C@@H](OC(=O)N2CCN(C)CC2)/C=C/[C@@H]1C [Compound 6],> 25000 nM,75.3 nM,8.85 nM,29.1 nM,−17.149%,−88.664%,15.7 nM,–,–,–,–,–,–,–
CN[C@@H]1CCN(c2cc(F)cc(/C=C(\C)[C@H]3OC(=O)C[C@H](O)CC[C@H](C)[C@@H](OC(=O)N4CCN(C)CC4)/C=C/[C@@H]3C)c2)C1 [Compound 45],36.3 nM,18.3 nM,15.9 nM,18.9 nM,−98.435%,−92.006%,35.7 nM,–,–,–,–,–,–,–
C/C(=C\c1cc(F)cc(N2CCOCC2)c1)[C@H]1OC(=O)C[C@H](O)CC[C@H](C)[C@@H](OC(=O)N2CCN3CCCC3C2)/C=C/[C@@H]1C (stereo partly shown) [Compound 82],68.6 nM,28.2 nM,3.79 nM,12.2 nM,−60.656%,−88.044%,8.74 nM,–,–,–,–,–,–,–
"C/C(=C\c1cccc(S(=O)(=O)NC(C)(C)CO)c1)[C@H]1OC(=O)C[C@H](O)CC[C@H](C)[C@@H](OC(=O)N2CCN(C)CC2)/C=C/[C@@H]1C [Compound 201, [(2S,3S,4E,6R,7S,10R)-10-hydroxy-2-[(E)-1-[3-[(1-hydroxy-2-methylpropan-2-yl)sulfamoyl]phenyl]prop-1-en-2-yl]-3,7-dimethyl-12-oxo-1-oxacyclododec-4-en-6-yl] 4-methylpiperazine-1-carboxylate]",620 nM,17.5 nM,5.64 nM,–,–,–,–,–,–,35.485,−48.055%,27.5 nM,−91.697%,40.9 nM
C/C(=C\c1cncc(Cl)c1)[C@H]1OC(=O)C[C@H](O)CC[C@H](C)[C@@H](OC(=O)N2CCN(C)CC2)/C=C/[C@@H]1C [Compound 46],> 25000 nM,114 nM,12.2 nM,78.4 nM,−10.684%,0.031%,40 nM,–,–,–,–,–,–,–
C/C(=C\c1cc(F)cc(N2CCN(CCO)CC2)c1)[C@H]1OC(=O)C[C@H](O)CC[C@H](C)[C@@H](OC(=O)N2CCC(N3CCCCC3)CC2)/C=C/[C@@H]1C [Compound 13],19.3 nM,15.9 nM,7.43 nM,20.8 nM,−95.312%,−94.040%,32.7 nM,–,–,–,–,–,–,–
C/C(=C\c1cc(C)cc2[nH]ncc12)[C@H]1OC(=O)C[C@H](O)CC[C@H](C)[C@@H](OC(=O)N2CCN(C)CC2)/C=C/[C@@H]1C [Compound 96],> 25000 nM,108 nM,2.4 nM,305 nM,−29.687%,−14.554%,168 nM,–,–,–,–,–,–,–
"C/C(=C\c1cccc(S(=O)(=O)N2CCC2)c1)[C@H]1OC(=O)C[C@H](O)CC[C@H](C)[C@@H](OC(=O)N2CCN(C)CC2)/C=C/[C@@H]1C [Compound 198, [(2S,3S,4E,6R,7S,10R)-2-[(E)-1-[3-(azetidin-1-ylsulfonyl)phenyl]prop-1-en-2-yl]-10-hydroxy-3,7-dimethyl-12-oxo-1-oxacyclododec-4-en-6-yl] 4-methylpiperazine-1-carboxylate]",2390 nM,43.2 nM,7.82 nM,–,–,–,–,–,–,55.224,−56.095%,15.5 nM,−96.773%,21.7 nM
CC(=O)N1CCC(n2nnc3c(F)cc(/C=C(\C)[C@H]4OC(=O)C[C@H](O)CC[C@H](C)[C@@H](OC(=O)N5CCN(C)CC5)/C=C/[C@@H]4C)cc32)CC1 [Compound 160],4.68 nM,4.69 nM,1.65 nM,0.896 nM,−86.403%,−82.399%,1.15 nM,–,–,–,–,–,–,–
CNC(=O)Cn1ncc2c(F)cc(/C=C(\C)[C@H]3OC(=O)C[C@H](O)CC[C@H](C)[C@@H](OC(=O)N4CCN(C)CC4)/C=C/[C@@H]3C)cc21 [Compound 128],3350 nM,18.1 nM,8.76 nM,25.7 nM,−62.651%,−96.227%,44.2 nM,–,–,–,–,–,–,–
